Data reported in patent US20160030416A1, “METHODS OF TREATING B2-BRADYKININ RECEPTOR MEDIATED ANGIOEDEMA” (SHIRE HUMAN GENETIC THERAPIES, INC., priority 2013, published 2016).

Tests used:
plasma extravasation [1] = assay: Plasma extravasation (Evans blue in bladder), IV bolus, wild-type mice; format: in vivo, wild-type (WT) C57/BL6 male mice; details: for Evans blue (EB) in the bladder: controls 0.7927
Text: In vivo experiments in both wild-type (WT) C57BL/6J mice and C1-inhibited knock out (C1 INH KO) mice measured pharmacodynamic efficacy by the ability of CFMQ to block plasma extravasation, which is causative to edema, the most important symptom requiring treatment in HAE subjects. This plasma extravasation model has been used extensively in the literature to investigate the efficacy of bradykinin receptor antagonists. (Han et al., “Increased vascular permeability in C1 inhibitor-deficient mice mediated by the bradykinin type 2 receptor,” J Clin Invest, 2002 April; 109(8): 1057-1063.)
The uptake and effective blocking of plasma extravasation of CFMQ was examined following IV (intravenous) bolus administration in wild-type (WT) C57/BL6 male mice (n=4/dose group). Mice received CFMQ (HGT3711) (2 μL/g) at 1.0 μg/kg, 100 μg/kg, and/or 6 mg/kg. Following CFMQ administration and prior to the terminal time point, mice received an IV injection of Evans blue (EB) dye (30 mg/kg) and were sacrificed. The bladder was removed, dried and weighed and extracted in formamide (1.0 mL). EB concentration in the formamide extract was determined spectrophotometrically and EB content was calculated as μg EB per milligram of tissue weight. Efficacy was determined by inhibiting the accumulation of EB in the bladder.
CFMQ doses of 0.001, 0.05, 0.1, 0.25, 0.5, 1.0, and or 3.0 mg/kg were administered as IV bolus injections to WT mice (n=8/dose group).

[2] = Plasma kinetics, intravenous, Sprague-Dawley rats; format: in vivo, female Sprague-Dawley rats
Protocol: (§1) CFMQ (HGT3711) was administered to fasted female Sprague-Dawley rats by a single intravenous injection at 1.0 mg/kg, formulated in 100% PEG200 (Table 2.6.5.X, Study 10SHIRUSP11). Blood samples were taken via a jugular vein cannula prior to administration and at 0.083 (5 min), 0.25 (15 min), 0.50 (30 min), 1, 2, 4 and 8 hours post dose. Plasma concentrations of CFMQ (HGT3711) were determined by LC-MS/MS and concentrations below the limit of quantitation (1 ng/mL) were assigned a value of zero for pharmacokinetic analysis. Nominal dosing concentrations were used in all calculations.

[3] = Plasma kinetics, intravenous, CD-1 mice; format: in vivo, female CD-1 mice
Protocol: as §1, with “CD-1 mice” for “Sprague-Dawley rats”, “PEG200.” for “PEG200 (Table 2.6.5.X, Study 10SHIRUSP11).”, “cardiac puncture” for “a jugular vein cannula”, “4,” for “4”, “(BLOQ=<1 ng/ml)” for “(1 ng/mL)”

[4] = Bidirectional permeability in Caco-2 cells; format: in vitro ADME, human; details: human, 5 μM, 120 minutes
Protocol: (§2) To determine bidirectional permeability, CFMQ was examined in an in vitro incubation assay with […] (Caco-2 cell). CFMQ at 5 μM was dosed to the cell monolayers on the apical side (A-to-B) or basolateral side (B-to-A) and incubated at 37° C. with 5% CO2 for 120 minutes. Permeability of Lucifer Yellow (500 μM) was measured to ensure no damage was inflicted to the cell monolayers during the CFMQ flux period. All samples were assayed by LC-MS/MS using electrospray ionization.

Caco-2 cell = assay: Bidirectional permeability in Caco-2 cells; format: in vitro ADME, human
Protocol: as §2

[5] = Plasma kinetics, intravenous, beagle dogs; format: in vivo, female beagle dogs; details: IV 1 mg/kg
Protocol: CFMQ (HGT3711) was administered to fasted female beagle dogs by a single intravenous injection at 1.0 mg/kg, formulated in 100% PEG200 (Table 10). Blood samples were taken via jugular vein puncture prior to administration and at 0.083 (5 min), 0.25 (15 min), 0.50 (30 min), 1, 4, 8 and 24 hours post dose. Plasma concentrations of CFMQ (HGT3711) were determined by LC-MS/MS and concentrations below the limit of quantitation (1.0 ng/mL) were assigned a value of zero for pharmacokinetic analysis. Nominal dosing concentrations were used in all calculations.

plasma extravasation [6] = assay: Plasma extravasation (Evans blue in bladder), oral, C1-INH knockout mice; format: in vivo, C1-INH-KO mice
[7] = female, Sprague-Dawley, rat, plasma, IV 1 mg/kg
[8] = female, CD-1, mouse, plasma, IV 1 mg/kg
[9] = female, CD-1, mouse, plasma, IV 1 mg/kg, extrapolated to t = 0
[10] = female, beagle, dog, plasma, extrapolated to t = 0

Cc1cc(Cl)c(COc2cccc3c(-n4cc(F)cn4)cc(C)nc23)c(Cn2cccc(C#N)c2=O)n1 [CFMQ, 1-((4-Chloro-3-(((4-(4-fluoro-1H-pyrazol-1-yl)-2-methylquinolin-8-yl)oxy)methyl)-6-methylpyridin-2-yl)methyl)-2-oxo-1,2-dihydropyridine-3-carbonitrile]
Evans blue (EB) in the bladder (plasma extravasation [1]; IV bolus 1.0 μg/kg): 0.7602 EB mg/kg tissue
Evans blue (EB) in the bladder (plasma extravasation [1]; IV bolus 6 mg/kg): 0.0701 EB mg/kg tissue
inhibition of plasma extravasation vs vehicle (plasma extravasation [1]; IV bolus 0.5, 1.0, and or 3.0 mg/kg, n=8): significant inhibition of plasma extravasation
inhibition of extravasation (plasma extravasation [1]; IV bolus 1.0 and or 100 μg/kg): did not inhibit extravasation
ED50 (plasma extravasation [1]; Mus musculus, intravenous, WT model, read-out: effective dose (ED50), plasma extravasation): 0.46 mg/kg
block of plasma extravasation (plasma extravasation [1]; intravenous, high doses (500 μg/kg)): blocked plasma extravasation completely
clearance as % of liver blood flow in rat (3.3 L/hr/kg) ([2]; IV 1 mg/kg): approximately 30%
adverse reactions ([2]; IV 1.0 mg/kg, rats): no adverse reactions observed
AUC(0-inf) [2, 7]: 1410 ng·h/mL
AUC(0-t) [2, 7]: 1150 ng·h/mL
C0 [2, 7]: 747 ng/mL
Tmax [2, 7]: 0 h
clearance [2, 7]: 15.8 mL/min/kg
half-life [2, 7]: 2.86 ± 2.54 h
concentration at 0 hr ([2]; female, Sprague-Dawley, rat, plasma, IV 1 mg/kg, 0 hr, read-out: Average Concentration of HGT3711): 0 ng/mL
concentration at 0.083 hr ([2]; female, Sprague-Dawley, rat, plasma, IV 1 mg/kg, 0.083 hr, read-out: Average Concentration of HGT3711): 597 ng/mL
concentration at 0.25 hr ([2]; female, Sprague-Dawley, rat, plasma, IV 1 mg/kg, 0.25 hr, read-out: Average Concentration of HGT3711): 401 ng/mL
concentration at 0.5 hr ([2]; female, Sprague-Dawley, rat, plasma, IV 1 mg/kg, 0.50 hr, read-out: Average Concentration of HGT3711): 324 ng/mL
concentration at 1 hr ([2]; female, Sprague-Dawley, rat, plasma, IV 1 mg/kg, 1.0 hr, read-out: Average Concentration of HGT3711): 248 ng/mL
concentration at 2 hr ([2]; female, Sprague-Dawley, rat, plasma, IV 1 mg/kg, 2.0 hr, read-out: Average Concentration of HGT3711): 160 ng/mL
concentration at 4 hr ([2]; female, Sprague-Dawley, rat, plasma, IV 1 mg/kg, 4.0 hr, read-out: Average Concentration of HGT3711): 113 ng/mL
concentration at 8 hr ([2]; female, Sprague-Dawley, rat, plasma, IV 1 mg/kg, 8.0 hr, read-out: Average Concentration of HGT3711): 36.9 ng/mL
Vd ([2]; female, Sprague-Dawley, rat, plasma, IV 1 mg/kg, read-out: Vss): 2.6 ± 1.1 L/kg
plasma concentration ([3]; IV 1 mg/kg, by 4 hours post-dose, BLOQ=<1 ng/ml): below the BLOQ
adverse reactions ([3]; IV 1.0 mg/kg, mice): No adverse reactions were observed
AUC(0-inf) [3, 8]: 70.9 ng·h/mL
clearance [3, 8]: 235 mL/min/kg
half-life [3, 8]: 0.56 h
concentration at 0.083 hr ([3]; female, CD-1, mouse, plasma, IV 1 mg/kg, 0.083 hr, read-out: Average Concentration of HGT3711): 162 ng/mL
concentration at 0.25 hr ([3]; female, CD-1, mouse, plasma, IV 1 mg/kg, 0.25 hr, read-out: Average Concentration of HGT3711): 92.9 ng/mL
concentration at 0.5 hr ([3]; female, CD-1, mouse, plasma, IV 1 mg/kg, 0.50 hr, read-out: Average Concentration of HGT3711): 22.4 ng/mL
concentration at 1 hr ([3]; female, CD-1, mouse, plasma, IV 1 mg/kg, 1.0 hr, read-out: Average Concentration of HGT3711): 12.6 ng/mL
concentration at 2 hr ([3]; female, CD-1, mouse, plasma, IV 1 mg/kg, 2.0 hr, read-out: Average Concentration of HGT3711): 3.48 ng/mL
C0 [3, 9]: 214 ng/mL
Tmax [3, 9]: 0 h
AUC(0-t) ([3]; female, CD-1, mouse, plasma, IV 1 mg/kg, read-out: AUClast ± SE): 68.1 ng·h/mL
Vd ([3]; female, CD-1, mouse, plasma, IV 1 mg/kg, read-out: Vss): 6.3 L/kg
Papp A→B at 120 min, 5 μM ([4]; apical to basolateral, read-out: permeability coefficient A-to-B): 34 ×10⁻⁶ cm/s
Papp B→A at 120 min, 5 μM ([4]; basolateral to apical, read-out: permeability coefficient B-to-A): 38 ×10⁻⁶ cm/s
efflux (Caco-2 cell): no significant efflux
permeability classification (Caco-2 cell): highly permeable
clearance as % of liver blood flow in dog (1.85 L/hr/kg) [5]: approximately 14%
AUC(0-inf) ([5]; female, beagle, dog, plasma): 5270 ng·h/mL
AUC(0-t) ([5]; female, beagle, dog, plasma): 5160 ng·h/mL
clearance ([5]; female, beagle, dog, plasma): 4.17 mL/min/kg
half-life ([5]; female, beagle, dog, plasma): 2.69 h
concentration at 0 hr ([5]; female, beagle, dog, plasma, 0 hr, read-out: Average Concentration of HGT3711): 0 ng/mL
concentration at 0.083 hr ([5]; female, beagle, dog, plasma, 0.083 hr, read-out: Average Concentration of HGT3711): 1840 ng/mL
concentration at 0.25 hr ([5]; female, beagle, dog, plasma, 0.25 hr, read-out: Average Concentration of HGT3711): 1320 ng/mL
concentration at 0.5 hr ([5]; female, beagle, dog, plasma, 0.50 hr, read-out: Average Concentration of HGT3711): 1070 ng/mL
concentration at 1 hr ([5]; female, beagle, dog, plasma, 1.0 hr, read-out: Average Concentration of HGT3711): 717 ng/mL
concentration at 4 hr ([5]; female, beagle, dog, plasma, 4.0 hr, read-out: Average Concentration of HGT3711): 377 ng/mL
concentration at 8 hr ([5]; female, beagle, dog, plasma, 8.0 hr, read-out: Average Concentration of HGT3711): 180 ng/mL
C0 [5, 10]: 2180 ng/mL
Tmax [5, 10]: 0 h
Vd ([5]; female, beagle, dog, plasma, read-out: Vss): 0.75 L/kg
efficacy compared with 0.4 mg/kg SC Firazyr (plasma extravasation [6]; oral 3.0 mg/kg): nearly as effective
inhibition of EB accumulation in the bladder (plasma extravasation [6]; oral 10 mg/kg): ~100%
inhibition of EB accumulation in the bladder (plasma extravasation [6]; oral 30 mg/kg): ~100%
